Measured values from patent US12168019B1, “8-hydroxy quinoline derivatives for enhancing telomerase reverse transcriptase (TERT) expression” (Sierra Sciences, Inc., priority 2010, dated 2024).

Columns and labels:
[1] = tested on: human TERT expression (hTERT mRNA transcripts); test: Quantitative real-time RT-PCR of hTERT mRNA transcripts in compound-treated cells; assay type: cell-based
From the text: Telomerase is a ribonucleoprotein complex composed of the catalytic protein subunit (human telomerase reverse transcriptase or hTERT) and the RNA template. hTERT expression level can be measured by PCR.
Quantitative Reverse Transcription PCR can be run according to procedures outlined in Yajima et al. (Yajima, T. et al. Quantitative Reverse Transcription-PCR Assay of the RNA Component of Human Telomerase Using the TaqMan Fluorogenic Detection System Clinical Chemistry, 44:12, 2441-2445, 1998).
The principle of real-time PCR was first described by Heid et al. (Heid C. A., Stevens J., Livak K. J., Williams P. M. Real time quantitative PCR. Genome Res., 6: 986-994, 1996). Briefly, amplification of the target sequence is monitored per PCR cycle by detecting the fluorescence signal emitted by an internal probe that is degraded by the 5′ nuclease activity of the Taq polymerase. The emission signal accumulates in each sample, and the Ct required to reach a given fluorescence threshold is determined (Ct stands for Cycle Threshold and is a measure of the number of PCR cycles that are required to amplify a target—thus, a lower Ct score means that there is more abundant hTERT mRNA). Thus, the C1 value of a sample inversely correlates to the quantity of the starting cDNA which correlates to the number of mRNA transcripts. Using the cDNA of known quantity, a standard curve can be generated and used to determine the starting amount of mRNA transcripts based on the […] of each sample.
Quantitative real-time PCR can be done on cDNA from test compound-treated and nontreated cells by use of a ABI Prism 7900 Sequence Detection System (PE Applied Biosystems, Foster City, CA) following the Assays-on-Demand protocol (PE Applied Biosystems, Foster City, CA). Quantitative data can be analyzed using the Sequence Detection System software version 2.1 (PE Applied Biosystems).
The following compounds were tested in assays designed to identify compounds that enhance human TERT expression. The compounds turned on human TERT expression in these assays.

viable cells in culture = test: Cell viability assay (CellTiter-Glo Luminescent Cell Viability Assay, ATP quantitation); assay type: cell-based; conditions: percent of DMSO vehicle control
Experimental: Cell viability is determined using a homogeneous method, such as CellTiter-Glo® Luminescent Cell Viability Assay (Promega Corporation, Madison, WI) to determine the number of viable cells in culture These assays are based on quantitation of the ATP present, which signals the presence of metabolically active cells. Luminescent values of compound treated cells are compared to that of cells treated with vehicle alone to determine the average cell viability as a percent of control.
Also: test concentration or dose not given here.

Compound	Average Number of hTERT Transcripts [1]	Average Cell Viability after 24 Hours (% DMSO) (viable cells in culture)
Oc1c(CN2CCN(c3cccc(Cl)c3)CC2)cc(Br)c2cccnc12 [Compound 1002]	14.79	57.7
COc1cc(C(Nc2ccccn2)c2ccc3cccnc3c2O)cc(Br)c1OC (stereo not shown) [Compound 1005]	55.17	64.8
Oc1c(C(Nc2ccccn2)c2ccccc2Br)ccc2cccnc12 (stereo not shown) [Compound 1007]	18.02	68
CCN(CC)c1ccc(C(NC(=O)C(C)C)c2cc(Cl)c3cccnc3c2O)cc1 (stereo not shown) [Compound 1011]	14.2	64.5
Oc1c(I)cc(I)c2cccnc12 [Compound 1018]	105.41	56.9
Oc1c(Cl)cc(Cl)c2cccnc12 [Compound 1020]	45.03	25.1
CC(=O)NC(c1ccccc1Cl)c1ccc2cccnc2c1O (stereo not shown) [Compound 1025]	113.98	93.5
CCC(=O)NC(c1ccc(OC)c(OC)c1)c1cc([N+](=O)[O-])c2cccnc2c1O (stereo not shown) [Compound 1028]	65.66	80.69
O=[N+]([O-])c1cc(CN2CCN(c3ccccc3)CC2)c(O)c2ncccc12 [Compound 1029]	5.3	32
COc1ccc(C(NC(C)=O)c2cc(Cl)c3cccnc3c2O)cc1OC (stereo not shown) [Compound 1038]	28.95	80.33
O=C(NC(c1ccc(Cl)cc1)c1ccc2cccnc2c1O)C1CCCCC1 (stereo not shown) [Compound 1045]	13.86	60.3
CCCCC(=O)NC(c1ccc2c(c1)OCO2)c1cc([N+](=O)[O-])c2cccnc2c1O (stereo not shown) [Compound 1046]	158.46	78
CC(=O)NC(c1cccs1)c1cc(Cl)c2cccnc2c1O (stereo not shown) [Compound 1052]	12.07	60.8
O=C(NC(c1ccc2c(c1)OCO2)c1cc([N+](=O)[O-])c2cccnc2c1O)C1CCCCC1 (stereo not shown) [Compound 1068]	21.41	61.2
COc1ccc(C(NC(=O)C2CCCCC2)c2cc([N+](=O)[O-])c3cccnc3c2O)cc1OC (stereo not shown) [Compound 1072]	93.44	
COc1ccc(C(NC(=O)C(C)C)c2cc([N+](=O)[O-])c3cccnc3c2O)cc1 (stereo not shown) [Compound 1073]	103.42	80.1
CCC(=O)NC(c1ccccc1Cl)c1cc([N+](=O)[O-])c2cccnc2c1O (stereo not shown) [Compound 1074]	49.89	
CCCCC(=O)NC(c1ccc(O)c(OCC)c1)c1cc([N+](=O)[O-])c2cccnc2c1O (stereo not shown) [Compound 1075]	83.26	82.63
CCCC(=O)NC(c1ccco1)c1cc(Cl)c2cccnc2c1O (stereo not shown) [Compound 1077]	15.88	
Cc1ccc2ccc(C(Nc3ccccn3)c3cccc([N+](=O)[O-])c3)c(O)c2n1 (stereo not shown) [Compound 1078]	36.96	
Cc1cc(C)n(-c2ccc3c(Cl)cc(Cl)c(O)c3n2)n1 [Compound 1079]	98.36	71.22
Cc1ccnc(NC(c2cccc(Cl)c2)c2ccc3ccc(C)nc3c2O)c1 (stereo not shown) [Compound 1080]	26.36	
Cc1ccnc(NC(c2ccc([N+](=O)O)cc2)c2ccc3ccc(C)nc3c2O)c1 (stereo not shown) [Compound 1081]	18.87	70.69
Oc1c(C(Nc2ccccn2)c2ccc(Cl)c(Cl)c2)ccc2cccnc12 (stereo not shown) [Compound 1082]	7.54	
Cc1ccnc(NC(c2cccc(Br)c2)c2ccc3ccc(C)nc3c2O)c1 (stereo not shown) [Compound 1083]	18.44	
Cc1ccnc(NC(c2cccc([N+](=O)O)c2)c2ccc3ccc(C)nc3c2O)c1 (stereo not shown) [Compound 1084]	11.54	65.08

Compound	Average Number of hTERT Transcripts [1]	Average Cell Viability after 24 Hours (% DMSO) (viable cells in culture)
O=C(NC(c1ccccc1)c1ccc2cccnc2c1O)c1ccccc1 (stereo not shown) [Compound 1086]	48.77	
CC(C)C(=O)NC(c1ccco1)c1ccc2cccnc2c1O (stereo not shown) [Compound 1087]	240.41	
Cc1ccc(C(NC(=O)C(C)C)c2ccc3cccnc3c2O)cc1 (stereo not shown) [Compound 1088]	191.81	
CCN1CCN(Cc2ccc3cccnc3c2O)CC1 [Compound 1089]	38.29	
Cc1ccc(S(=O)(=O)Nc2ccc(O)c3ncccc23)cc1 [Compound 1091]	91.89	94.3
Cc1ccc(S(=O)(=O)Nc2cc(Cl)c(O)c3ncccc23)cc1 [Compound 1092]	96.33	
Cc1ccc(S(=O)(=O)Nc2cc(S(=O)(=O)c3ccc(C)cc3)c(O)c3ncccc23)cc1 [Compound 1093]	160.48	66.5
Oc1c(C(Nc2ccccc2Cl)c2ccccn2)ccc2cccnc12 (stereo not shown) [Compound 1095]	3.46	
CCN(CC)Cc1ccc(O)c2ncccc12 [Compound 1096]	48.25	
COCc1cc(CN2CCCC2)c(O)c2ncccc12 [Compound 1097]	77.36	
COCc1cc(CN2CCCCC2)c(O)c2ncccc12 [Compound 1098]	102.7	
CCOCc1cc(CN2CCCCC2)c(O)c2ncccc12 [Compound 1099]	67.59	
CCCOCc1cc(CN2CCCCC2)c(O)c2ncccc12 [Compound 1100]	9.12	56.1
CCCOCc1cc(CN2CCN(C)CC2)c(O)c2ncccc12 [Compound 1101]	24.8	
CC(C)OCc1cc(CN2CCCCC2)c(O)c2ncccc12 [Compound 1102]	351.44	
CC1CCN(Cc2cc(COC(C)C)c3cccnc3c2O)CC1 [Compound 1103]	70.5	
Cc1cc(NC(c2ccccn2)c2ccc3cccnc3c2O)no1 (stereo not shown) [Compound 1104]	19.27	
Cc1ccc2c(I)cc(I)c(O)c2n1 [Compound 1105]	51.56	
O=S1(=O)CCC(N2COc3c(cc(Cl)c4cccnc34)C2)C1 (stereo not shown) [Compound 1107]	7.97	
Cc1ccc2ccc(C(Nc3ccccn3)c3ccccc3Br)c(O)c2n1 (stereo not shown) [Compound 1108]	31.13	
O=C(CCc1ccccc1)NC(c1ccc(Cl)cc1)c1ccc2cccnc2c1O (stereo not shown) [Compound 1109]	34.36	
CC(C)C(=O)NC(c1ccccc1)c1cc([N+](=O)[O-])c2cccnc2c1O (stereo not shown) [Compound 1110]	35.19	
Cc1ccc2ccc(C(Nc3ccccn3)c3ccccc3Cl)c(O)c2n1 (stereo not shown) [Compound 1111]	35.20	
COc1ccc(C(NC(=O)C(C)C)c2cc([N+](=O)[O-])c3cccnc3c2O)cc1OC (stereo not shown) [Compound 1112]	58.99	
Oc1ccc(CN2CCN(c3cccc(Cl)c3)CC2)c2cccnc12 [Compound 1113]	29.15	
